{
  "source": "patent US20190008151A1",
  "about": "“PLANT DISEASE CONTROL COMPOSITION AND PLANT DISEASE CONTROL METHOD” (SUMITOMO CHEMICAL COMPANY, LIMITED, priority 2015, published 2019)",
  "key": {"wheat leaf blight fungus": {"test_system": "wheat leaf blight fungus", "test": "Test Example 3: growth of wheat leaf blight fungus in YBG medium, microtiter plate, absorbance at 550 nm", "type": "cell-based", "conditions": "18° C., six days", "protocol": "The present compound 1 or the present compound 2-1 was dissolved into dimethyl sulfoxide such that each concentration of the present compound 1 or the present compound 2-1 was adjusted to one hundred fifty times as much as the concentration indicated in the below-mentioned Table 4. The resultant agent solution was dispensed into a microliter plate (with 96 wells) in 1 μl portion thereof per well. One hundred forty nine (149) μl of YBG medium (which was prepared by dissolving 10 g of yeast extract, 10 g of Bacto Peptone, and 20 mL of glycerol into 1 L of water, followed by sterilizing the medium) was dispensed into the wells to which the agent solution(s) was/were dispensed. The plate was cultivated at 18° C. for six days, thereby allowing wheat leaf blight fungus to undergo proliferation, and the absorbance at 550 nm of each well of the micro titer plate was then measured to examine a degree of growth of the wheat leaf blight fungus (hereinafter referred to as “treated group”).\nWhereas, wheat leaf blight fungus was proliferated similarly to the case of the treated group except that dimethyl sulfoxide was used instead of the agent solution, and the degree of the growth was examined (hereinafter referred to as “untreated group”). The efficacy was calculated from the respective obtained degree of growth by the below-mentioned “Equation 1”.\nEfficacy(%)=100×(X−Y)/X Equation 1 […]"}, "[1]": {"test_system": "wheat rust fungus (Puccinia recondite)", "test": "Test Example 4: foliar spray of flowable formulations on wheat, inoculation with wheat rust fungus, lesion area", "type": "in vivo, Puccinia recondite on wheat (cultivar. Shirogane)", "conditions": "lesion area after ten days at 23° C.", "protocol": "Five (5) parts of the present compound 1, 35 parts of a mixture of white carbon and ammonium polyoxyethylene alkyl ether sulfate (the weight ratio of 1:1) and […] of water were mixed, and the mixture was then finely-ground by a wet grinding method to obtain a flowable formulation comprising the present compound 1. Separately, the flowable formulation comprising the present compound 2-1 was prepared according to the above-mentioned similar method except that the present compound 2-1 was used instead of the present compound 1 to form a flowable formulation comprising the present compound 2-1.\nEach of the above-mentioned respective flowable formulations, and the flowable formulation comprising the present compound 1 and the present compound 2-1 that was prepared according to the above-mentioned Formulation Example 3 was diluted with water such that each concentration of the respective compounds in the dilution solutions was adjusted to that indicated in Table 5, to prepare the dilution solutions, respectively.\nA plastic pot was filled with soil, and thereto wheat (cultivar. Shirogane) was seeded, and the plants were grown in a greenhouse for ten days. […]\nFrom each of the lesion area of the treated group and the untreated group, respectively, the efficacy of the treated group was calculated by the below-mentioned Equation 2. […]"}},
  "data": [
    {"smiles": "CNC(=O)C(OC)c1ccccc1COc1cc(C)ccc1C", "note": "(stereo not shown) [Present compound 1]", "values": [
      {"measurement": "Efficacy (%)", "setting": "wheat leaf blight fungus; concentration in medium 0.005 ppm", "value": 20, "unit": "%"},
      {"measurement": "Efficacy (%)", "setting": "wheat leaf blight fungus; concentration in medium 0.1 ppm", "value": 65, "unit": "%"},
      {"measurement": "Efficacy (%)", "setting": "[1]; concentration 0.0005 ppm", "value": 22, "unit": "%"},
      {"measurement": "Efficacy (%)", "setting": "[1]; concentration 0.01 ppm", "value": 46, "unit": "%"}
    ]}
  ]
}
